Columns and labels:
[1] = Antiproliferative activity against human H1975-1 harboring EGFR L858R/T790M mutant measured after 72 hrs by sulforhodamine B assay; format: functional
A-431 = assay: Antiproliferative activity against human A431 wild type cells measured after 72 hrs by Sulforhodamine B assay; format: functional, cell-based; settings: A-431, 72 h
HCC827 = assay: Antiproliferative activity against human HCC827 cells measured after 72 hrs by sulforhodamine B assay; format: functional, cell-based; settings: HCC827, 72 h
L02 = assay: Cytotoxicity against human HL7702 cells measured after 72 hrs by sulforhodamine B assay; format: cell-based; settings: L02, 72 h
[2] = target: Epidermal growth factor receptor (Homo sapiens, UniProt P00533); assay: Inhibition of wild type EGFR (unknown origin)
[3] = target: Epidermal growth factor receptor (Homo sapiens, UniProt P00533, L858R/T790M); assay: Inhibition of EGFR L858R/T790M (unknown origin)
A549 = assay: Antiproliferative activity against human A549 cells measured after 72 hrs by sulforhodamine B assay; format: functional, cell-based; settings: A549, 72 h

Sequence of Epidermal growth factor receptor (Homo sapiens, UniProt P00533, L858R/T790M) (P00533 25-1210 T790M/L858R limits assumed): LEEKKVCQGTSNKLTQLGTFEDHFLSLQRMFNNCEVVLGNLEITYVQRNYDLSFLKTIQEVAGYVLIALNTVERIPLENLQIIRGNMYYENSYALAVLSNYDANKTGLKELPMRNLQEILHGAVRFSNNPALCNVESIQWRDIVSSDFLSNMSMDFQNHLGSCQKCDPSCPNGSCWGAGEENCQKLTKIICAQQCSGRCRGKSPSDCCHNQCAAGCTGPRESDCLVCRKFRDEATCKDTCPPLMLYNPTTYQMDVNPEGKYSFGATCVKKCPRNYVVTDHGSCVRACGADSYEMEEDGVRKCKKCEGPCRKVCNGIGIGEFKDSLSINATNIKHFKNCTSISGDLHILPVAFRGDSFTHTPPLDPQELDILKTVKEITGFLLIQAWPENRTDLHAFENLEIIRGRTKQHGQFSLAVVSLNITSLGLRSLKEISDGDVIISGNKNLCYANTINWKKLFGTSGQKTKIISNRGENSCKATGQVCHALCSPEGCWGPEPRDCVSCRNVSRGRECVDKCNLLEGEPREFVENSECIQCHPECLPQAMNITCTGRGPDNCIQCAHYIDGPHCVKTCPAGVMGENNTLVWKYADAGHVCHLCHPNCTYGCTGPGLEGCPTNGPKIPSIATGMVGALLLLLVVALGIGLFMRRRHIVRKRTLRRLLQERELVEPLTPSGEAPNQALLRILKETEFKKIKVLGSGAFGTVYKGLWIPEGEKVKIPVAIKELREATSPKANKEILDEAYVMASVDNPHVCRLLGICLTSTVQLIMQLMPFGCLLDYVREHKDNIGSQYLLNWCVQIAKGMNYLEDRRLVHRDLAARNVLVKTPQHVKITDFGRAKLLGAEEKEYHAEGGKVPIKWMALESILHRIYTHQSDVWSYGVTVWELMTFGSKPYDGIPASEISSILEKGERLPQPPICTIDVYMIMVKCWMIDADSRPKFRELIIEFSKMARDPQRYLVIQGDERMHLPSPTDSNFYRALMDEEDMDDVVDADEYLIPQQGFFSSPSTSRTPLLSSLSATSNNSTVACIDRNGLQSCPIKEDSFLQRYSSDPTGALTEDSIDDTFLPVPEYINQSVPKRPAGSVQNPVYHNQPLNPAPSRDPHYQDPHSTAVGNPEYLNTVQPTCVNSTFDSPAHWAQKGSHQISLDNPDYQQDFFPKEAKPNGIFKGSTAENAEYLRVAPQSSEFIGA
Sequence of Epidermal growth factor receptor (Homo sapiens, UniProt P00533) (P00533 whole entry): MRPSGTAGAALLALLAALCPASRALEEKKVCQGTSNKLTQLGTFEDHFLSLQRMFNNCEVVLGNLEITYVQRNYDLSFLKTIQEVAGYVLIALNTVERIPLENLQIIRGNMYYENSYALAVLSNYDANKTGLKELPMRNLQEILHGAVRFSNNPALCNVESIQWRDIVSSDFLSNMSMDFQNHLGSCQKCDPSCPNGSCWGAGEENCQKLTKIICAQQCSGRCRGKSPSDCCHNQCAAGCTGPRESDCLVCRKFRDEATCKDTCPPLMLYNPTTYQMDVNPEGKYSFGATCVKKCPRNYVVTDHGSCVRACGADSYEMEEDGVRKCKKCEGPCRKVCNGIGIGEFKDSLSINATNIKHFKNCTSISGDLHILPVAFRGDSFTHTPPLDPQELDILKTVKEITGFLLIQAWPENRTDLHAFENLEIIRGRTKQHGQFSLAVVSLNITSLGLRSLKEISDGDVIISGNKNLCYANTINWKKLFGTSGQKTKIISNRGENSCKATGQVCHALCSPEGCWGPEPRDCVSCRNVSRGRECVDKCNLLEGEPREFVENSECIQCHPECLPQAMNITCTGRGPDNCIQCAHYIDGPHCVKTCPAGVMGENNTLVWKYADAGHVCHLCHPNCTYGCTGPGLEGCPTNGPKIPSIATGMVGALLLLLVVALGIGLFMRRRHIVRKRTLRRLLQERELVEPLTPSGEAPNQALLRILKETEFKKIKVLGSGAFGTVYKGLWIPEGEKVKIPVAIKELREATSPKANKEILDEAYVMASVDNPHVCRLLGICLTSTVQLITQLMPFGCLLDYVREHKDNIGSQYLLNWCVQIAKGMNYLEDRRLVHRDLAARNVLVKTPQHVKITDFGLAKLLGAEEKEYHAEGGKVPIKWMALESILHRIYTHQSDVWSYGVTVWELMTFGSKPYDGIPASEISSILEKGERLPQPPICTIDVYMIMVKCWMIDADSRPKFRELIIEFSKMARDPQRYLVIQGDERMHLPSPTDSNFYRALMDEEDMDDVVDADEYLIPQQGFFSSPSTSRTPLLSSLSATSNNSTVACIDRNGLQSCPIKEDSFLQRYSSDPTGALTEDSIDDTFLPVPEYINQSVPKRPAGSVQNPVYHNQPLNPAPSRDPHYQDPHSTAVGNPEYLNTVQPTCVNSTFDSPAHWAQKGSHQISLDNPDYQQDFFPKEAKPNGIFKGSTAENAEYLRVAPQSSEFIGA

Compound | IC50 (A-431) [nM] | IC50 (HCC827) [nM] | IC50 [2] [nM] | IC50 [3] [nM] | IC50 (A549) [nM] | IC50 [1] [nM] | IC50 (L02) [nM]
C=C1CC(CBr)(c2ccccc2OC)OC1=O (racemic) | 2400 |  |  |  |  | 1100 | 
C=C1C(=O)O[C@@H]2C3O[C@]3(C)CC/C=C(\C)CC[C@@H]12 (stereo partly drawn) | 2570 |  |  |  |  | 1430 | 
C=C1C[C@]2(CCc3ccccc3[C@H]2Br)OC1=O | 4100 |  |  |  |  | 1220 | 
C=C1CN(S(=O)(=O)c2ccc([N+](=O)[O-])cc2)CC(CBr)(c2ccccc2)OC1=O (racemic) | 21200 |  |  |  |  | 24200 | 
C=C1C[C@]2(CCCc3ccccc3[C@H]2Br)OC1=O | 3300 |  |  |  |  | 1200 | 
C=C1C[C@]2(CCCC[C@H]2Br)OC1=O (racemic) | 21200 |  |  |  |  | 4550 | 
C=C1CC2(CCCc3ccccc3C2Br)OC1=O (racemic) | 1270 |  |  |  |  | 1080 | 
C=C1CC(CBr)(c2ccc(OC)cc2)OC1=O (racemic) | 4200 |  |  |  |  | 2300 | 
C=C1CC(c2ccccc2)(C(Cl)c2ccccc2)OC1=O (racemic) | 2770 |  |  |  |  | 1260 | 
CC(=O)O[C@H]1C(=O)[C@@]2(C)[C@H]([C@H](OC(=O)c3ccccc3)[C@]3(O)C[C@H](OC(=O)[C@H](O)[C@@H](NC(=O)c4ccccc4)c4ccccc4)C(C)=C1C3(C)C)[C@]1(OC(C)=O)CO[C@@H]1C[C@@H]2O [PACLITAXEL] | 2 |  |  |  |  | 3 | 
C=C1CC(C)(CBr)OC1=O (racemic) | 124000 |  |  |  |  | 32000 | 
C=C1CC(CBr)(c2ccc(C(F)(F)F)cc2)OC1=O (racemic) | 1010 |  |  |  |  | 1940 | 
C=C1CC(C(Br)c2ccccc2)OC1=O (racemic) | 20300 |  |  |  |  | 6200 | 
C=CC(=O)Nc1cc(Nc2nccc(-c3cn(C)c4ccccc34)n2)c(OC)cc1N(C)CCN(C)C [OSIMERTINIB] | […] | 200 |  |  | 140 | 20 | 300
C=C1CC(C[Se]c2ccccc2)(c2ccccc2)OC1=O (racemic) | 1270 |  |  |  |  | 1300 | 
C=C1CC(c2ccccc2)(C(Br)c2ccccc2)OC1=O (racemic) | 4190 | 1000 | 29000 | 14000 | 1370 | 250 | 960
C=C1C[C@@]2(CCCc3ccccc3[C@@H]2Br)OC1=O | 2500 |  |  |  |  | 1000 | 
C=C1C[C@]2(Cc3ccccc3[C@H]2Br)OC1=O | 2090 |  |  |  |  | 4390 | 
C=C1CC(CI)(c2ccc(F)cc2)OC1=O (racemic) | 1900 | 1100 | 24000 | 15000 | 1210 | 600 | 1200

Continued, in another order:

IC50 (A-431) [nM] | IC50 (HCC827) [nM] | IC50 [2] [nM] | IC50 [3] [nM] | IC50 (A549) [nM] | Compound | IC50 [1] [nM] | IC50 (L02) [nM]
5240 |  |  |  |  | C=C1CC(c2ccccc2)(C(C)Br)OC1=O (racemic) | 1660 | 
2200 |  |  |  |  | C=C1CC[C@@](CBr)(c2ccccc2)OC1=O | 1620 | 
5500 |  |  |  |  | C=C1CC(CBr)(c2ccccc2C)OC1=O (racemic) | 3500 | 
800 | 2300 | 64000 | 30000 | 1680 | C=C1CC(CBr)(c2ccc(F)cc2)OC1=O (racemic) | 600 | 2400
1480 |  |  |  |  | C=C1CC(CBr)(c2ccccc2)OC1=O (racemic) | 800 | 
10900 |  |  |  |  | C=C1CC[C@](CBr)(c2ccccc2)OC1=O | 1330 | 
2720 | 2200 | 47000 | 26000 | 1980 | C=C1CC(CI)(c2ccccc2)OC1=O (racemic) | 650 | 2200
1100 |  |  |  |  | C=C1CC(CBr)(c2ccc(Cl)cc2)OC1=O (racemic) | 1540 | 
43000 |  |  |  |  | C=C1C[C@@](CCl)(c2ccccc2)OC1=O | 21400 | 
25100 |  |  |  |  | C=C1CC(CF)(c2ccccc2)OC1=O (racemic) | 13400 | 
4500 |  |  |  |  | C=C1CC(CBr)(c2cccc(C)c2)OC1=O (racemic) | 1200 | 
30600 |  |  |  |  | C=C1C[C@](CCl)(c2ccccc2)OC1=O | 9770 | 
2200 |  |  |  |  | C=C1CC(CBr)(c2ccc(C)cc2)OC1=O (racemic) | 1100 | 
1330 |  |  |  |  | C=C1C[C@](CBr)(c2ccccc2)OC1=O | 970 | 
1700 |  |  |  |  | C=C1CC(CBr)(c2ccccc2F)OC1=O (racemic) | 1300 | 
4060 |  |  |  |  | C=C1CC(CO)(c2ccccc2)OC1=O (racemic) | 2260 | 

— ChEMBL document CHEMBL4616600, “Synthesis and cytotoxic evaluation of halogenated α-exo-methylene-lactones” (Bioorg Med Chem, 2020)
